Assay results as given in patent US4683331A, “Omega-(2,4-dihalobiphenylyl) oxo alkanoic acids” (Spofa spojene podniky pro zdravotnickou, priority 1984, dated 1987).

Assays:
Carrageenin edema [1] = details: J. Pharm. Sci. Vol. 66 (1977); cited from earlier work
adjuvant arthritis = details: J. Pharm. Sci. Vol. 66 (1977); cited from earlier work
in vivo = details: acute (short-term) toxicity
Carrageenin edema [2] = assay: Carrageenin edema; assay type: in vivo; details: single dose
Experimental: (§1) Anti-inflammatory activity is measured according to
(§2) Carrageenin edema and Freund adjuvans edema. The assay for
Carrageenin edema was performed according to J. Winter, Proc.
Soc. Exptl. Biol. Med. Vol. 111 (1962), p 544. Single oral doses
Edema size was evaluated 1, 24, and 48
(§3) hours after administration of each compound. The assay for Free
(§4) after administration of each compound. All of the tabulated
(§5) values are statistically significant (p < 0.05) except for those

Freund adjuvans edema = assay: Freund adjuvans edema; assay type: in vivo; details: single dose
Experimental: as §1, §2, §3
adjuvans edema was performed according to Z. Horakova and J.
Grimova, Ceskosl. Fys. Vol. 17 (1968), p. 137. Single oral doses
The edema was evaluated 1, and 24 hours
as §4, §5

[3] = 25 mg/kg po, bracketed values not significant
[4] = 10 mg/kg po, bracketed values not significant
[5] = 100 mg/kg po, bracketed values not significant

| SMILES | activity for Carrageenin edema (Carrageenin edema [1]) | percent inhibition for adjuvant arthritis (adjuvant arthritis) | activity for adjuvant arthritis (in words) (adjuvant arthritis) | LD50 (in vivo) | Carrageenin % inhibition 1 hr (Carrageenin edema [2]; [3]) | Carrageenin % inhibition 24 hr (Carrageenin edema [2]; [3]) | Carrageenin % inhibition 48 hr (Carrageenin edema [2]; 25 mg/kg po) | Carrageenin % inhibition 1 hr (Carrageenin edema [2]; 100 mg/kg po) | Carrageenin % inhibition 24 hr (Carrageenin edema [2]; 100 mg/kg po) | Carrageenin % inhibition 48 hr (Carrageenin edema [2]; 100 mg/kg po) | Adjuvans % inhibition 1 hr (Freund adjuvans edema; 10 mg/kg po) | Adjuvans % inhibition 24 hr (Freund adjuvans edema; [4]) | Adjuvans % inhibition 1 hr (Freund adjuvans edema; 25 mg/kg po) | Adjuvans % inhibition 24 hr (Freund adjuvans edema; [3]) | Adjuvans % inhibition 1 hr (Freund adjuvans edema; 100 mg/kg po) | Adjuvans % inhibition 24 hr (Freund adjuvans edema; [5]) | Adjuvans % inhibition 1 hr (Freund adjuvans edema; 50 mg/kg po) | Adjuvans % inhibition 24 hr (Freund adjuvans edema; 50 mg/kg po) | Adjuvans % inhibition 1 hr (Freund adjuvans edema; 20 mg/kg po) | Adjuvans % inhibition 24 hr (Freund adjuvans edema; 20 mg/kg po) |
| --- | --- | --- | --- | --- | --- | --- | --- | --- | --- | --- | --- | --- | --- | --- | --- | --- | --- | --- | --- | --- |
| O=C(O)CCC(=O)c1ccc(-c2ccc(Cl)cc2)cc1 [4'-Cl-fenbufen] | no activity | 61% |  |  |  |  |  |  |  |  |  |  |  |  |  |  |  |  |  |  |
| O=C(O)CCC(=O)c1ccc(-c2ccc(F)cc2)cc1 [4'-F-fenbufen] | 1.7 |  | no activity |  |  |  |  |  |  |  |  |  |  |  |  |  |  |  |  |  |
| CC(CC(=O)c1ccc(-c2ccc(Cl)cc2Cl)cc1)C(=O)O (stereo not drawn) [Compound 1] |  |  |  | 450 mg/kg | 27% | 54% | 58% | 35% | 73% | 58% | 37% | 38% | 40% | 46% | 45% | 55% |  |  |  |  |
| CC(CC(=O)c1ccc(-c2ccc(F)cc2F)cc1)C(=O)O (stereo not drawn) [Compound 2] |  |  |  | 500 mg/kg | 30% | 61% | 42% | 44% | 66% | 45% |  |  | 56% | 32% |  |  | 53% | 46% |  |  |
| CC(CC(=O)c1ccc(-c2ccc(F)cc2)cc1)C(=O)O (stereo not drawn) [Compound 3] |  |  |  | 500 mg/kg | 16% | 21% |  | 33% | 34% |  | 37% | 31% |  |  |  |  |  |  | 42% | 39% |
| O=C(O)CCC(=O)c1ccc(-c2ccccc2)cc1 [Compound 4] |  |  |  |  | 40% | 14% |  | 46% | 38% | 0% | 27% | 8% | 31% | 9% | 54% | 7% |  |  |  |  |
